# Target: T1, bromodomain-containing protein 4 (BRD4) (Homo sapiens, UniProt O60885)
# T1 construct: VCaP cells were chased from ATCC and cultured in Dulbecco's Modified Eagle's Medium; host or cells: VCaP
# Test: BRD4 Western blot (degradation)
# Assay type: cell-based
# Conditions: at 1 μM; VCaP cells, 16 h
# Description: The following biological assays were performed to evaluate the protein degradation in various cell types using representative compounds disclosed. The degradation of the following proteins were evaluated: bromodomain-containing protein 4 (BRD4), androgen receptor (AR), c-Myc, c-Jun N-terminal kinases (JNK), and enhancer of zeste homolog 2 (EZH2).
# VCaP cells were chased from ATCC and cultured in Dulbecco's Modified Eagle's Medium (ATCC), supplemented with 10% FBS (ATCC) and Penicillin/Streptomycin (Life Technologies). DMSO control and compound treatments (0.03 μM to 1 μM) were performed in 12-well plates for 16 h. cells were harvested, and lysed in RIPA buffer (50 mM Tris pH8, 150 mM NaCl, 1% Tx-100, 0.1% SDS, 0.5% sodium deoxycholate) supplemented with protease and phosphatase inhibitors. Lysates were clarified at 16,000 g for 10 minutes, and protein concentration was determined. Equal amount of protein (20 μg) was subjected to SDS-PAGE analysis and followed by immunoblotting according to standard protocols. The antibodies used were BRD4 (Cell signaling #13440), and Actin (Sigma #5441). Detection reagents were Clarity Western ELC substrate (Bio-rad #170-5060).
row,SMILES,Degradation activity BRD4
1,"Cc1sc2c(c1C)C(c1ccc(Cl)cc1)=N[C@@H](CC(=O)NCCOCCOCCOCCOCCNC(=O)C1N[C@@H](CC(C)(C)C)[C@](C#N)(c3ccc(Cl)cc3F)[C@H]1c1cccc(Cl)c1F)c1nnc(C)n1-2 (stereo partly drawn) [Compound A1307, N-(14-{[3-(3-chloro-2-fluorophenyl)-4-(4-chloro-2-fluorophenyl)-4-cyano-5-(2,2-dimethylpropyl)pyrrolidin-2-yl]formamido}-3,6,9,12-tetraoxatetradecan-1-yl)-2-[(9S)-7-(4-chlorophenyl)-4,5,13-trimethyl-3-thia-1,8,11,12-tetraazatricyclo-[8.3.0.0^2,^6]trideca-2(6),4,7,10,12-pentaen-9-yl]acetamide]",C (larger than 50% degradation at 1 μM)
2,"COc1cc(C(=O)NCCOCCOCCOCCOCCNC(=O)C[C@@H]2N=C(c3ccc(Cl)cc3)c3c(sc(C)c3C)-n3c(C)nnc32)ccc1NC(=O)C1N[C@@H](CC(C)(C)C)[C@](C#N)(c2ccc(Cl)cc2F)[C@H]1c1cccc(Cl)c1F (stereo partly drawn) [Compound A1876, 3-(3-chloro-2-fluorophenyl)-4-(4-chloro-2-fluorophenyl)-N-{4-[(14-{2-[(9S)-7-(4-chlorophenyl)-4,5,13-trimethyl-3-thia-1,8,11,12-tetraazatricyclo[8.3.0.0^2,^6]-trideca-2(6),4,7,10,12-pentaen-9-yl]acetamido}-3,6,9,12-tetraoxatetradecan-1-yl)carbamoyl]-2-methoxyphenyl}-4-cyano-5-(2,2-dimethylpropyl)pyrrolidine-2-carboxamide]",C (larger than 50% degradation at 1 μM)
3,"COc1cc(C(=O)NCCOCCOCCOCCNC(=O)C[C@@H]2N=C(c3ccc(Cl)cc3)c3c(sc(C)c3C)-n3c(C)nnc32)ccc1NC(=O)C1N[C@@H](CC(C)(C)C)[C@](C#N)(c2ccc(Cl)cc2F)[C@H]1c1cccc(Cl)c1F (stereo partly drawn) [Compound A1829, 3-(3-chloro-2-fluorophenyl)-4-(4-chloro-2-fluorophenyl)-N-{4-[(2-{2-[2-(2-{2-[(9S)-7-(4-chlorophenyl)-4,5,13-trimethyl-3-thia-1,8,11,12-tetraazatricyclo[8.3.0.0^2,^6]trideca-2(6),4,7,10,12-pentaen-9-yl]acetamido}ethoxy)ethoxy]ethoxy}ethyl)carbamoyl]-2-methoxyphenyl}-4-cyano-5-(2,2-dimethylpropyl)pyrrolidine-2-carboxamide]",B (25 to 50% degradation at 1 μM)
4,"COc1cc(C(=O)NCCOCCNC(=O)C[C@@H]2N=C(c3ccc(Cl)cc3)c3c(sc(C)c3C)-n3c(C)nnc32)ccc1NC(=O)C1N[C@@H](CC(C)(C)C)[C@](C#N)(c2ccc(Cl)cc2F)[C@H]1c1cccc(Cl)c1F (stereo partly drawn) [Compound A1890, 3-(3-chloro-2-fluorophenyl)-4-(4-chloro-2-fluorophenyl)-N-(4-{[2-(2-{2-[(9S)-7-(4-chlorophenyl)-4,5,13-trimethyl-3-thia-1,8,11,12-tetraazatricyclo[8.3.0.0^2,^6]-trideca-2(6),4,7,10,12-pentaen-9-yl]acetamido}ethoxy)ethyl]carbamoyl}-2-methoxyphenyl)-4-cyano-5-(2,2-dimethylpropyl)pyrrolidine-2-carboxamide]",C (larger than 50% degradation at 1 μM)
5,"COc1cc(C(=O)NCCOCCOCCOCCNC(=O)C[C@@H]2N=C(c3ccc(Cl)cc3)c3c(sc(C)c3C)-n3c(C)nnc32)ccc1NC(=O)[C@H]1N[C@H](CC(C)(C)C)[C@@](C#N)(c2ccc(Cl)cc2F)[C@@H]1c1cccc(Cl)c1F [Compound A1875, (2S,3R,4S,5R)-3-(3-chloro-2-fluorophenyl)-4-(4-chloro-2-fluorophenyl)-N-{4-[(2-{2-[2-(2-{2-[(9S)-7-(4-chlorophenyl)-4,5,13-trimethyl-3-thia-1,8,11,12-tetraazatricyclo[8.3.0.0^2,^6]trideca-2(6),4,7,10,12-pentaen-9-yl]acetamido}ethoxy)ethoxy]ethoxy}ethyl)carbamoyl]-2-methoxyphenyl}-4-cyano-5-(2,2-dimethylpropyl)pyrrolidine-2-carboxamide]",A (0 to 25% degradation at 1 μM)
6,"COc1cc(C(=O)NCCOCCOCCNC(=O)C[C@@H]2N=C(c3ccc(Cl)cc3)c3c(sc(C)c3C)-n3c(C)nnc32)ccc1NC(=O)C1N[C@@H](CC(C)(C)C)[C@](C#N)(c2ccc(Cl)cc2F)[C@H]1c1cccc(Cl)c1F (stereo partly drawn) [Compound A1863, 3-(3-chloro-2-fluorophenyl)-4-(4-chloro-2-fluorophenyl)-N-[4-({2-[2-(2-{2-[(9S)-7-(4-chlorophenyl)-4,5,13-trimethyl-3-thia-1,8,11,12-tetraazatricyclo-[8.3.0.0^2,^6]trideca-2(6),4,7,10,12-pentaen-9-yl]acetamido}ethoxy)ethoxy]-ethyl}carbamoyl)-2-methoxyphenyl]-4-cyano-5-(2,2-dimethylpropyl)pyrrolidine-2-carboxamide]",B (25 to 50% degradation at 1 μM)
7,"COc1cc(C(=O)NCCOCCOCCOCCNC(=O)C[C@@H]2N=C(c3ccc(Cl)cc3)c3c(sc(C)c3C)-n3c(C)nnc32)ccc1NC(=O)[C@@H]1N[C@@H](CC(C)(C)C)[C@](C#N)(c2ccc(Cl)cc2F)[C@H]1c1cccc(Cl)c1F [Compound A1874, (2R,3S,4R,5S)-3-(3-chloro-2-fluorophenyl)-4-(4-chloro-2-fluorophenyl)-N-{4-[(2-{2-[2-(2-{2-[(9S)-7-(4-chlorophenyl)-4,5,13-trimethyl-3-thia-1,8,11,12-tetraazatricyclo[8.3.0.0^2,^6]trideca-2(6),4,7,10,12-pentaen-9-yl]acetamido}ethoxy)ethoxy]ethoxy}ethyl)carbamoyl]-2-methoxyphenyl}-4-cyano-5-(2,2-dimethylpropyl)pyrrolidine-2-carboxamide]",B (25 to 50% degradation at 1 μM)
8,"COc1cc(C(=O)NCCOCCOCCNC(=O)C[C@@H]2N=C(c3ccc(Cl)cc3)c3c(sc(C)c3C)-n3c(C)nnc32)ccc1NC(=O)[C@H]1N[C@H](CC(C)(C)C)[C@@](C#N)(c2ccc(Cl)cc2F)[C@@H]1c1cccc(Cl)c1F [Compound A1865, (2S,3R,4S,5R)-3-(3-chloro-2-fluorophenyl)-4-(4-chloro-2-fluorophenyl)-N-[4-({2-[2-(2-{2-[(9S)-7-(4-chlorophenyl)-4,5,13-trimethyl-3-thia-1,8,11,12-tetraazatricyclo-[8.3.0.0^2,^6]trideca-2(6),4,7,10,12-pentaen-9-yl]acetamido}ethoxy)ethoxy]ethyl}-carbamoyl)-2-methoxyphenyl]-4-cyano-5-(2,2-dimethylpropyl)pyrrolidine-2-carboxamide]",A (0 to 25% degradation at 1 μM)
9,"Cc1sc2c(c1C)C(c1ccc(Cl)cc1)=N[C@@H](CC(=O)NCCOCCOCCOCCNC(=O)C1N[C@@H](CC(C)(C)C)[C@](C#N)(c3ccc(Cl)cc3F)[C@H]1c1cccc(Cl)c1F)c1nnc(C)n1-2 (stereo partly drawn) [Compound A1306, N-(2-{2-[2-(2-{[3-(3-chloro-2-fluorophenyl)-4-(4-chloro-2-fluorophenyl)-4-cyano-5-(2,2-dimethylpropyl)pyrrolidin-2-yl]formamido}ethoxy)ethoxy]ethoxy}ethyl)-2-[(9S)-7-(4-chlorophenyl)-4,5,13-trimethyl-3-thia-1,8,11,12-tetraazatricyclo[8.3.0.0^2,^6]trideca-2(6),4,7,10,12-pentaen-9-yl]acetamide]",B (25 to 50% degradation at 1 μM)
10,"Cc1sc2c(c1C)C(c1ccc(Cl)cc1)=N[C@@H](CC(=O)NCCOCCOCCOCCOCCOCCNC(=O)C1NC(CC(C)(C)C)C(C#N)(c3ccc(Cl)cc3F)C1c1cccc(Cl)c1F)c1nnc(C)n1-2 (stereo partly drawn) [Compound A1283, N-(17-{[3-(3-chloro-2-fluorophenyl)-4-(4-chloro-2-fluorophenyl)-4-cyano-5-(2,2-dimethylpropyl)pyrrolidin-2-yl]formamido}-3,6,9,12,15-pentaoxaheptadecan-1-yl)-2-[(9S)-7-(4-chlorophenyl)-4,5,13-trimethyl-3-thia-1,8,11,12-tetraazatricyclo-[8.3.0.0^2,^6]trideea-2(6),4,7,10,12-pentaen-9-yl]acetamide]",B (25 to 50% degradation at 1 μM)

# Tested on: p53
# Test: Western blot of HCT116 cells, p53 level
# Assay type: cell-based, human
# Conditions: Western blot (FIG. 2, FIG. 3)
row,SMILES,p53 level increase
1,"COc1cc(C(=O)NCCOCCOCCOCCOCC(=O)N[C@H](C(=O)N2C[C@H](O)C[C@H]2C(=O)NCc2ccc(-c3scnc3C)cc2)C(C)(C)C)ccc1NC(=O)[C@@H]1N[C@@H](CC(C)(C)C)[C@](C#N)(c2ccc(Cl)cc2F)[C@H]1c1cccc(Cl)c1F (single isomer, unassigned) [Compound A1896]",dose dependent p53 level increase
2,COc1cc(C(=O)NCCOCCOCC(=O)N[C@H](C(=O)N2C[C@H](O)C[C@H]2C(=O)NCc2ccc(-c3scnc3C)cc2)C(C)(C)C)ccc1NC(=O)[C@@H]1N[C@@H](CC(C)(C)C)[C@](C#N)(c2ccc(Cl)cc2F)[C@H]1c1cccc(Cl)c1F [Compound A1907],dose dependent p53 level increase

# Source: patent publication US12577255B2, “MDM2-based modulators of proteolysis and associated methods of use” (Arvinas Operations, Inc., priority 2015, dated 2026)
